Source: ChEMBL document CHEMBL1201862, “PubChem BioAssay data set” (2004)
Blank lines part the entries; values can stand above or below the molecule they belong to. Active and inactive are the calls of the source.

What was measured:
[1] = target: Type-1 angiotensin II receptor (Homo sapiens, UniProt P30556); assay: AT1 receptor antagonists, dose response, selectivity assay for APJ receptor antagonist project, cell-based, uHTS hits (AID 463214); type: functional;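 further: antagonist potency against angiotensin II stimulated AT1 response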
Chain of Type-1 angiotensin II receptor (P30556 whole entry): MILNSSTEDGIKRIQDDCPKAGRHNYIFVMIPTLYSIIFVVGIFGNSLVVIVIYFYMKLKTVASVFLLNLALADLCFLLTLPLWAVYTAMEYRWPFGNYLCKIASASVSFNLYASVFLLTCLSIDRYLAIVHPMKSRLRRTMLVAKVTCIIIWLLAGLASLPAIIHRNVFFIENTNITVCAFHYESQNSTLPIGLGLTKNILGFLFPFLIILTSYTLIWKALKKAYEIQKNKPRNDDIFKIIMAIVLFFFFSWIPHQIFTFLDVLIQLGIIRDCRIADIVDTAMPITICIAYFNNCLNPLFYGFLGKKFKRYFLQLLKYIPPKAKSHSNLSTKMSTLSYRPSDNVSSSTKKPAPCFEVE

[2] = target: Beta-galactosidase (Escherichia coli, UniProt Q8VNN2); assay: PubChem AID 485352; type: functional
Chain of Beta-galactosidase (Q8VNN2 whole entry): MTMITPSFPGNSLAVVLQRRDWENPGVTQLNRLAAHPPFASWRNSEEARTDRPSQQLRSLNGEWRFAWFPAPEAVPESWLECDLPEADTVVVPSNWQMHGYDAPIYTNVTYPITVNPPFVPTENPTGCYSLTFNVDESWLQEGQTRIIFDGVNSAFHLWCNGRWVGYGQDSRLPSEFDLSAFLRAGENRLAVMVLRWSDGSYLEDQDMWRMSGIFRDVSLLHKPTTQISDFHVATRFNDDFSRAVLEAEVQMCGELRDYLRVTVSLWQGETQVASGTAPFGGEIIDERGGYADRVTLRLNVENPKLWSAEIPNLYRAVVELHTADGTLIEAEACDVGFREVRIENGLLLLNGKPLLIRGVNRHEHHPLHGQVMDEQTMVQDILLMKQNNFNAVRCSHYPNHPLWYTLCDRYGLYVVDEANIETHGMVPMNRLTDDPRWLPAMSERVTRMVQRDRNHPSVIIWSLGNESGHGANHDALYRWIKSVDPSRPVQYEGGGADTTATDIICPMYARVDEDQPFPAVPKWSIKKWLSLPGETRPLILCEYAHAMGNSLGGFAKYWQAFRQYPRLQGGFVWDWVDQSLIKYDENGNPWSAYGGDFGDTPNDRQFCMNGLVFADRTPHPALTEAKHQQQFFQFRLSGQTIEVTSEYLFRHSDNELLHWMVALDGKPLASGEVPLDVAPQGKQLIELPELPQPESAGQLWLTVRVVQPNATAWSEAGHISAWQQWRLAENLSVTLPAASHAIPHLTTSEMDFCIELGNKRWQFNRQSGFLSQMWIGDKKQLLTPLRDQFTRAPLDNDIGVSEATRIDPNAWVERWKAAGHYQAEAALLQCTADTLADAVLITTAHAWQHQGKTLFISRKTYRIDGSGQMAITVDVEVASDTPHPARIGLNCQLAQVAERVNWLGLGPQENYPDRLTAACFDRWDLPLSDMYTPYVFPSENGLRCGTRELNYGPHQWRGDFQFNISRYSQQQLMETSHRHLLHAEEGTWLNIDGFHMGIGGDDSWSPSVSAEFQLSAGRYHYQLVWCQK

[3] = target: DNA dC->dU-editing enzyme APOBEC-3A (Homo sapiens, UniProt P31941); assay: SAR analysis of small molecule inhibitors of APOBEC3A DNA Deaminase via a fluorescence-based single-stranded DNA deaminase assay.; type: functional; details: read-out: IC50_Mean
Chain of DNA dC->dU-editing enzyme APOBEC-3A (P31941 whole entry): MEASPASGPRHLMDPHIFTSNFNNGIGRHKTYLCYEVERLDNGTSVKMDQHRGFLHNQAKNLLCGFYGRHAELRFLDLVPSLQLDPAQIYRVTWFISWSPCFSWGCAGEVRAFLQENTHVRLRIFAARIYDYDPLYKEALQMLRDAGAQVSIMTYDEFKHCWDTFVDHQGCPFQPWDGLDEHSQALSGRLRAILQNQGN

[4] = target: DNA dC->dU-editing enzyme APOBEC-3G (Homo sapiens, UniProt Q9HC16); assay: APOBEC3G deaminase inhibitors, SAR follow-up, biochemical, fluorescence, single-stranded DNA substrate (AID 602136); type: functional; details: read-out: IC50_Mean
Chain of DNA dC->dU-editing enzyme APOBEC-3G (Q9HC16 whole entry): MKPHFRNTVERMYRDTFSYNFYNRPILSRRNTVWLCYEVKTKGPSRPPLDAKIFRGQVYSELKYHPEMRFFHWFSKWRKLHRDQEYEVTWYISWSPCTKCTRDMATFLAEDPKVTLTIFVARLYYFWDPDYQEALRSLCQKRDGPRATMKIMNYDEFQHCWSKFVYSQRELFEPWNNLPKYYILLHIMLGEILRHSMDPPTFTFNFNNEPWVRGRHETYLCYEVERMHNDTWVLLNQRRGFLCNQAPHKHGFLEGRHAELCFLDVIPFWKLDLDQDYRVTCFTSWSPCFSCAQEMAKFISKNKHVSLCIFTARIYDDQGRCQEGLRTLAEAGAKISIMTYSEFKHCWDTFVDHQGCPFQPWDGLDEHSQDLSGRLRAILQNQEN

[5] = target: Voltage-gated inwardly rectifying potassium channel KCNH2 (Homo sapiens, UniProt Q12809); details: Potency;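 further: confirmatory quantitative high-throughput screen measuring inhibition of hERG channel activity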
Chain of Voltage-gated inwardly rectifying potassium channel KCNH2 (Q12809 whole entry): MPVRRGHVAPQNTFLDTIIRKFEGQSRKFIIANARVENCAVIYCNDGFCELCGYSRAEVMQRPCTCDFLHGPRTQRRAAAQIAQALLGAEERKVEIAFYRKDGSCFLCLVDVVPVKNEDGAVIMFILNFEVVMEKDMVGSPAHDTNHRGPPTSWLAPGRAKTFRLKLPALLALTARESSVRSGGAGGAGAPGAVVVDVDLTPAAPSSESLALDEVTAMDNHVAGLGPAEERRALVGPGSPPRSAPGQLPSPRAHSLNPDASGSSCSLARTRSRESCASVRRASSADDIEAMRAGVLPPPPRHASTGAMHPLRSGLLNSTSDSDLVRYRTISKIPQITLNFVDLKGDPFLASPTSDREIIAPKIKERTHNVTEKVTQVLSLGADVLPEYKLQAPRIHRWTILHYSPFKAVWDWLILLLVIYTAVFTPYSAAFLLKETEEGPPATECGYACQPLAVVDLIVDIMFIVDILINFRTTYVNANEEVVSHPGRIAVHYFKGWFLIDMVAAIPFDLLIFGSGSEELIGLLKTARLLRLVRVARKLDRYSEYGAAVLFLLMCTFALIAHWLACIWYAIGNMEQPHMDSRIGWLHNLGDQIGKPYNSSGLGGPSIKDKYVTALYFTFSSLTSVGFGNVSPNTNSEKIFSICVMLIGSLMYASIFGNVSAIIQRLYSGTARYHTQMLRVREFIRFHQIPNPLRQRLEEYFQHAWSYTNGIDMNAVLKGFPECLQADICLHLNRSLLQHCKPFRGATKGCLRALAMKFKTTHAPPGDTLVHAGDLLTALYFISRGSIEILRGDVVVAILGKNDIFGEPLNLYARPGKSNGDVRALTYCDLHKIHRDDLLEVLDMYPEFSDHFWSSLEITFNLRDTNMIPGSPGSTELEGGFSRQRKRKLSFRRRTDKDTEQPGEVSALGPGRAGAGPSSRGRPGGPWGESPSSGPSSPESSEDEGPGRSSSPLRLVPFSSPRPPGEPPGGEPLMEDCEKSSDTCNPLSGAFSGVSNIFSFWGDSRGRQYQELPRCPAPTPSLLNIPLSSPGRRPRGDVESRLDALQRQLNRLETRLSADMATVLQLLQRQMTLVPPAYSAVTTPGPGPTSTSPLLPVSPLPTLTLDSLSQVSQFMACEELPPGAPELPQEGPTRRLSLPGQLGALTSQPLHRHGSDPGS

[6] = Luminescence Cell-Based Dose Retest to Confirm Inhibitors of Cancer Stem Cells. [Related pubchem assays (depositor defined):AID2717, AID2721]; type: functional; details: Homo sapiens
[7] = target: Heat shock protein HSP 90-alpha (Homo sapiens, UniProt P07900); type: functional, organism-based
[8] = target: T1, Sentrin-specific protease 7 (Homo sapiens, UniProt Q9BQF6); assay: SENP7 protease inhibitors, SAR follow-up, biochemical, luminescence (AID 504497); type: functional
T1 sequence (Q9BQF6 whole entry): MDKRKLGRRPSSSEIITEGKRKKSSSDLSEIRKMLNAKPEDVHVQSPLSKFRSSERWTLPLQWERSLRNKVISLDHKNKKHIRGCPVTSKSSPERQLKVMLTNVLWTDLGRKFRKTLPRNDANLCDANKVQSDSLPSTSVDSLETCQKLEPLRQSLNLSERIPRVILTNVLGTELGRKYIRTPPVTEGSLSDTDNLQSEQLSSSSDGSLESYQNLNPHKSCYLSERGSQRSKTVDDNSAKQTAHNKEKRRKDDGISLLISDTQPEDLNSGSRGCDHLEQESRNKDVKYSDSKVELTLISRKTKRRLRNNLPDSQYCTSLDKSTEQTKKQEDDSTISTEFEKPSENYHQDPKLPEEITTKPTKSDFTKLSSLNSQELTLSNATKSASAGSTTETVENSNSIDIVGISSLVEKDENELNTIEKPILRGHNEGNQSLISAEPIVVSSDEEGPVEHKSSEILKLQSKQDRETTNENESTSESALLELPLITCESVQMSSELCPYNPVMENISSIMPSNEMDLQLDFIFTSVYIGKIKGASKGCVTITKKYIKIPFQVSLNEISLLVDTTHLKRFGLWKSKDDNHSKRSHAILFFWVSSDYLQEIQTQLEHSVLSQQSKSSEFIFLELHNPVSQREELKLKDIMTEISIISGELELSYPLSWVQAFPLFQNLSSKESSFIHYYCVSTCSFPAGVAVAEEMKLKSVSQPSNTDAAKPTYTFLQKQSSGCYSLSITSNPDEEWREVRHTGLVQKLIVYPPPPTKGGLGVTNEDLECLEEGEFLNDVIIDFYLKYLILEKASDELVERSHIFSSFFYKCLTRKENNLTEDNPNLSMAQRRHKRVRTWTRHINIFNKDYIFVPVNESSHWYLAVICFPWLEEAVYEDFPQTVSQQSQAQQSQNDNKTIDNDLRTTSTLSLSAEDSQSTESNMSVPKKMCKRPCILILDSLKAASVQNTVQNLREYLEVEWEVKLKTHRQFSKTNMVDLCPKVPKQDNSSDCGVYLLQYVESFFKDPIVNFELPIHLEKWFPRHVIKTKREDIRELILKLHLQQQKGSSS

[9] = target: T2, Caspase-3 (Homo sapiens, UniProt P42574); assay: SAR Analysis of small molecule inhibitors of Sentrin-specific proteases (SENPs) using a Caspase-3 Selectivity assay. [Related pubchem assays (depositor defined):AID2540, AID2599, AID434973, AID489001]; type: functional
T2 sequence (P42574 whole entry): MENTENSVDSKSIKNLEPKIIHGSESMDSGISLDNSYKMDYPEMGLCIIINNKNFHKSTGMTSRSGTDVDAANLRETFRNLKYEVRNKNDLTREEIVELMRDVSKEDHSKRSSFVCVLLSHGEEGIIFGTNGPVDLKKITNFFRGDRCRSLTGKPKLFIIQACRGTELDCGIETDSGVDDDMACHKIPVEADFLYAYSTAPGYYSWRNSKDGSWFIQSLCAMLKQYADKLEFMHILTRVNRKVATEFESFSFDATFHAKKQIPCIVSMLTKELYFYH

[10] = target: T3, Sentrin-specific protease 6 (Homo sapiens, UniProt Q9GZR1); assay: SAR Analysis of small molecule inhibitors of Sentrin-specific protease 6 (SENP6) using a Luminescent assay. [Related pubchem assays (depositor defined):AID2582, AID2599]; type: functional
T3 sequence (Q9GZR1 whole entry): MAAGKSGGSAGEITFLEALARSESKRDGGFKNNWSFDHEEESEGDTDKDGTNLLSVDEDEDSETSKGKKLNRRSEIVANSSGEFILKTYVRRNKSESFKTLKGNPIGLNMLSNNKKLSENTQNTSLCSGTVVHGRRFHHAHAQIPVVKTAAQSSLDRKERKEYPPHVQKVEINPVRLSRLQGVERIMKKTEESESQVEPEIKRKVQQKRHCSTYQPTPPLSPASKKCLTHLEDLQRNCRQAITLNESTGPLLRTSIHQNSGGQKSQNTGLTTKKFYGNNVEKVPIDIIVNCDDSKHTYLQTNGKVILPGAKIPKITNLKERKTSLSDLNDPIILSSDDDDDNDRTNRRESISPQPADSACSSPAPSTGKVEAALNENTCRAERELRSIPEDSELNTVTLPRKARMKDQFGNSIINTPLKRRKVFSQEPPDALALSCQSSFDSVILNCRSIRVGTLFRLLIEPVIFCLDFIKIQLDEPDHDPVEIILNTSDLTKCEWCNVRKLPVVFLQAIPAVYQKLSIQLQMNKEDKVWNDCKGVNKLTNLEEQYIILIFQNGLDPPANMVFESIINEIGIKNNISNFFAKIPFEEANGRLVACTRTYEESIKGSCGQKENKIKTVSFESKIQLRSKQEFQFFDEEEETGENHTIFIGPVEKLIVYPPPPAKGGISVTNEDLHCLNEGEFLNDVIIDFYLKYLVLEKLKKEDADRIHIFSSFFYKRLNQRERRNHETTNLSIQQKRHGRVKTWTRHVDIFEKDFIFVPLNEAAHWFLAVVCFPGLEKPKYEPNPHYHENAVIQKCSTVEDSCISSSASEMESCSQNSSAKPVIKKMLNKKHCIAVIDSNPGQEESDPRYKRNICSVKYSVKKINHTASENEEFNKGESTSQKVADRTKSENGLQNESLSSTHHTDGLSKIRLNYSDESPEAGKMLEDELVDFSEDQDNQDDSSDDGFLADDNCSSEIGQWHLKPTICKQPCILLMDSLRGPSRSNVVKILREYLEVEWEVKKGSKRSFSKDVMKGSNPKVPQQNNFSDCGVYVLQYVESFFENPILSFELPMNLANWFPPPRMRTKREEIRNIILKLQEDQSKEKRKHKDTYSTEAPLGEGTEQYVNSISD

[11] = target: T4, Sentrin-specific protease 8 (Homo sapiens, UniProt Q96LD8); assay: SENP8 protease inhibitors, SAR follow-up, biochemical, luminescence (AID 504501); type: functional
T4 sequence (Q96LD8 whole entry): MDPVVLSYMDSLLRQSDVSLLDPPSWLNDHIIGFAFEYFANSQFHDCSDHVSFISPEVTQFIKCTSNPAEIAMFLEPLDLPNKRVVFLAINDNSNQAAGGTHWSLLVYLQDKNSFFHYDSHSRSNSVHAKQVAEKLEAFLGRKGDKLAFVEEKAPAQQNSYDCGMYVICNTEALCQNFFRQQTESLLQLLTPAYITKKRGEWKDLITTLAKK

Structure (SMILES): Cc1nc2sc3c(c2c2nncn12)CCCC3
IC50 [3]: > 99 µM (inactive)
IC50 [4]: > 99 µM (inactive)

Structure (SMILES): CC[C@@H]1Cc2cc(O)ccc2C2=C1c1ccc(O)cc1C[C@H]2CC
AC50 [5]: 25.1 µM (inconclusive)
AC50 [6]: 2.36 µM (active)
AC50 [7]: 6.32 µM (active)

Structure (SMILES): Cc1sc2ccccc2c1CC1=NCCN1
AC50 [5]: 35.5 µM (inconclusive)

Structure (SMILES): O=C(Nc1nc2c(Cl)cccc2s1)C1COc2ccccc2O1 (centres undefined)
IC50 [8]: 79.7 µM (active)
IC50 [9]: > 99 µM (inactive)
IC50 [10]: > 99 µM (inactive)
IC50 [11]: > 99 µM (inactive)

Second part, the molecule after the results:

IC50 [1]: > 40 µM (not active)
EC50 [2]: > 40 µM (inactive)
Structure (SMILES): CSc1cccc(N=C2C(=O)Nc3ccccc32)c1

IC50 [1]: 36.4 µM (not active)
EC50 [2]: > 40 µM (inactive)
Structure (SMILES): Cc1ccc(C(=O)NCC(=O)OCC(=O)c2ccc(C)c([N+](=O)[O-])c2)cc1
